Data from publication PMC10004777 (Molecules, 2023).

Columns and labels:
[1] = test system: osteosarcoma cell line SJSA-1; assay: Cell viability (MTT) assay, SJSA-1; assay type: cell-based
Procedure: (§1) To investigate the selectivity of these derivatives towards different tumor cell lines, we also selected HepG2 and osteosarcoma cell line SJSA-1 cells to evaluate the anti-proliferation activity of the derivatives. […] Except for compounds A2 and A11, the effects of other compounds on SJSA-1 were not strong.
(§2) The cell lines present in this study were obtained from Procell Life Science & Technology Co. Ltd. MCF-7, HepG2 and SJSA-1 cells were cultured in DMEM medium (DMEM, Gibco) supplemented with 10% fetal bovine serum (FBS, Gibco), 1% penicillin-streptomycin (Hyclone) at 37℃ in a humid environment with 5% CO2. HK-2 cells were cultured in DMEM/F12 (1:1) medium and placed in incubators in the same environment.
(§3) Cell viability was determined by MTT assay. MCF-7, HepG2, SJSA-1 and HK-2 cells (6 × 10^3 cells /well) were seeded in 96-well plates with serum-free medium for 24 h. […] After 48 or 72 h, 10 μL MTT (5 mg/mL, Beyotime) was added and incubated at 37 °C for 4 h. Then 100 μL of lysate was added. After complete dissolution of the crystal, the absorbance was measured at 540 nm and expressed as the average percentage of absorbance between treated and control cells. The value for control cells was set at 100%. Cell survival rate was calculated as the ratio of the absorbance of the cells and negative control after minus the blank absorbance respectively.

[2] = test system: MCF-7 breast cancer cells; assay: Cell viability (MTT) assay, MCF-7; assay type: cell-based
Procedure: MCF-7 is a commonly used tumor cell line.
as §2, §3

[3] = test system: HepG2 cells; assay: Cell viability (MTT) assay, HepG2; assay type: cell-based
Procedure: as §1, §2, §3

[4] = test system: HK-2 cells; assay: Cell viability (MTT) assay, HK-2 normal cells (cytotoxicity); assay type: cell-based
Procedure: as §2, §3

Row | SMILES | Viability of Cells (% of Control) ([1]; 50 µM) | Viability of Cells (% of Control) ([1]; 100 µM) | melting point [°C] | Viability of Cells (% of Control) ([2]; 25 µM) | Viability of Cells (% of Control) ([2]; 50 µM) | Viability of Cells (% of Control) ([2]; 100 µM) | Viability of Cells (% of Control) ([3]; 25 µM) | Viability of Cells (% of Control) ([3]; 50 µM) | Viability of Cells (% of Control) ([4]; 50 µM) | Viability of Cells (% of Control) ([4]; 100 µM) | inhibition at 50 µM ([2]; Homo sapiens, MCF7, MCF-7, 50 µM, 48 h, read-out: inhibition rate of MCF-7) [%] | anti-proliferation activity on MCF-7 compared with GAA ([2]; MCF-7, 48 h) | anti-proliferation activity on HepG2 (in words) ([3]; HepG2, 48 h) | toxicity to HK2 cells (in words) [4]
1 | CCCCNC(=O)[C@H](C)CC(=O)C[C@@H](C)[C@H]1C[C@H](O)[C@@]2(C)C3=C(C(=O)C[C@]12C)[C@@]1(C)CCC(=O)C(C)(C)[C@@H]1C[C@@H]3O [Compound A1, (n-butyl)-(7β,15α,25R)-7,15-Dihydroxy-3,11,23-Trioxolanost-8-en-26-oic Amide] | 87.9 ± 0.9 % of Control | 74.0 ± 3.8 % of Control | 120.7 to 121.5 | 96.6 ± 6.2 % of Control | 114.3 ± 1.2 % of Control | 78.7 ± 3.4 % of Control | 90.5 ± 1.1 % of Control | 87.2 ± 3.1 % of Control | – | – | – | – | – | –
2 | Cc1ccc(NC(=O)[C@H](C)CC(=O)C[C@@H](C)[C@H]2C[C@H](O)[C@@]3(C)C4=C(C(=O)C[C@]23C)[C@@]2(C)CCC(=O)C(C)(C)[C@@H]2C[C@@H]4O)cc1 [Compound A3, (4-Methylphenyl)-(7β,15α,25R)-7,15-Dihydroxy-3,11,23-Trioxolanost-8-en-26-oic Amide] | 85.3 ± 1.1 % of Control | 83.3 ± 3.0 % of Control | 174.3 to 175.5 | 110.9 ± 2.2 % of Control | 114.3 ± 1.2 % of Control | 78.7 ± 3.9 % of Control | 90.1 ± 1.1 % of Control | 76.3 ± 1.1 % of Control | – | – | – | – | – | –
3 | C[C@H](CC(=O)C[C@@H](C)[C@H]1C[C@H](O)[C@@]2(C)C3=C(C(=O)C[C@]12C)[C@@]1(C)CCC(=O)C(C)(C)[C@@H]1C[C@@H]3O)C(=O)Nc1ccc(Cl)cc1 [Compound A4, (4-Chlorophenyl)-(7β,15α,25R)-7,15-Dhydroxy-3,11,23-Trioxolanost-8-en-26-oic Amide] | 83.9 ± 5.4 % of Control | 57.4 ± 4.2 % of Control | 184.9 to 185.3 | 116.4 ± 4.8 % of Control | 120.7 ± 2.0 % of Control | 108.9 ± 1.1 % of Control | 87.7 ± 1.9 % of Control | 72.0 ± 1.9 % of Control | – | – | – | – | – | –
4 | Cc1ccc(CNC(=O)[C@H](C)CC(=O)C[C@@H](C)[C@H]2C[C@H](O)[C@@]3(C)C4=C(C(=O)C[C@]23C)[C@@]2(C)CCC(=O)C(C)(C)[C@@H]2C[C@@H]4O)cc1 [Compound A5, (4-methylbenzyl)-(7β,15α,25R)-7,15-Dihydroxy-3,11,23-Trioxolanost-8-en-26-oic Amide] | 75.0 ± 2.6 % of Control | 64.5 ± 1.2 % of Control | 208.7 to 209 | 115.0 ± 2.9 % of Control | 107.4 ± 6.7 % of Control | 99.5 ± 1.0 % of Control | 78.5 ± 3.0 % of Control | 69.1 ± 1.9 % of Control | 110.4 ± 13.1 % of Control | 97.0 ± 8.8 % of Control | – | – | – | –
5 | C[C@H](CC(=O)C[C@@H](C)[C@H]1C[C@H](O)[C@@]2(C)C3=C(C(=O)C[C@]12C)[C@@]1(C)CCC(=O)C(C)(C)[C@@H]1C[C@@H]3O)C(=O)NCc1ccc(F)cc1 [Compound A6, (4-Fluorobenzyl)-(7β,15α,25R)-7,15-Dihydroxy-3,11,23-Trioxolanost-8-en-26-oic Amide] | 92.6 ± 3.1 % of Control | 65.8 ± 3.2 % of Control | 178.4 to 179.3 | 77.1 ± 4.2 % of Control | – | 26.4 ± 1.5 % of Control | 84.0 ± 0.8 % of Control | 76.6 ± 1.6 % of Control | 89.6 ± 6.9 % of Control | 80.2 ± 9.0 % of Control | 63.6 | significant anti-proliferation activities | weaker anti-proliferation effect | some toxicity
6 | C[C@H](CC(=O)C[C@@H](C)[C@H]1C[C@H](O)[C@@]2(C)C3=C(C(=O)C[C@]12C)[C@@]1(C)CCC(=O)C(C)(C)[C@@H]1C[C@@H]3O)C(=O)N1CCN(C)CC1 [Compound A13, (4-Methylpiperazin-1-yl)-(7β,15α,25R)-7,15-Dihydroxy-3,11,23-Trioxolanost-8-en-26-oic Amide] | 87.6 ± 3.8 % of Control | 77.6 ± 3.5 % of Control | 173.2 to 174.9 | 113.6 ± 2.1 % of Control | 107.3 ± 9.1 % of Control | 102.7 ± 3.5 % of Control | 104.4 ± 2.0 % of Control | 99.3 ± 4.9 % of Control | – | – | – | – | – | –
7 | CCN1CCN(C(=O)[C@H](C)CC(=O)C[C@@H](C)[C@H]2C[C@H](O)[C@@]3(C)C4=C(C(=O)C[C@]23C)[C@@]2(C)CCC(=O)C(C)(C)[C@@H]2C[C@@H]4O)CC1 [Compound A14, (4-Ethylpiperazin-1-yl)-(7β,15α,25R)-7,15-Dihydroxy-3,11,23-Trioxolanost-8-en-26-oic Amide] | 70.4 ± 1.6 % of Control | 47.3 ± 2.1 % of Control | 198.5 to 199.4 | 106.2 ± 4.7 % of Control | 102.2 ± 5.9 % of Control | 96.2 ± 5.0 % of Control | 95.6 ± 1.9 % of Control | 99.3 ± 0.2 % of Control | – | – | – | – | – | –
